# Where a SMILES comes first, the peptide text is derived from it. Bridges are numbered along the chain shown (N, C = ends). The star is where a group is joined. X3 = O=C(CCCCCOP(=O)(O)OC1CCC(c2ccccc2)(c2ccccc2)CC1)*; X4 = O=C(CCC(=O)*)NS(=O)(=O)c1ccc2ccccc2c1; X2 = O=C(CCCCCOP(=O)(O)Oc1ccc2ccccc2c1)*; X1 = O=C(CCCCCOP(=O)(O)OCCCCCc1ccccc1)*
# Biological target: Albumin (Oryctolagus cuniculus) (UniProt P49065)
# Experiment: Compound was measured for its retention time in rabbit serum albumin;where k`=tt-t0/t0; tt=retention time of compound and t0=retention time of DMSO
# Chain of Albumin (Oryctolagus cuniculus) (P49065 whole entry, looked up): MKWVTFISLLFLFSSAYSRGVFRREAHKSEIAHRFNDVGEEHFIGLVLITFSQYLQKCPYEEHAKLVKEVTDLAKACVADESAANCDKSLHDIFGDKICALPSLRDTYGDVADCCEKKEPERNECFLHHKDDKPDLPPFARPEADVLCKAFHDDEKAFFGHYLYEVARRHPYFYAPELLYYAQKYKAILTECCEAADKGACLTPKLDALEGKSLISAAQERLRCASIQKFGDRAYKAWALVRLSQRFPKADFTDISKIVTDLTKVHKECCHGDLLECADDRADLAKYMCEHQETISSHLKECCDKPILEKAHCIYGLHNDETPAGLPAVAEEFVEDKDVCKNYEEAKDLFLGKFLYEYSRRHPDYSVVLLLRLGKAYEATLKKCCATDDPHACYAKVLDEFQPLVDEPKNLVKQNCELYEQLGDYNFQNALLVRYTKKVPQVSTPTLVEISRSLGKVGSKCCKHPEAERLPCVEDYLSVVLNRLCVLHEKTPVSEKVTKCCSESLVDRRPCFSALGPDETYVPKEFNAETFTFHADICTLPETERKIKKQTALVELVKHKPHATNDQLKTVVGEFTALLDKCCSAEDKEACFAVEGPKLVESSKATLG
row,SMILES,k'/k'+1
1,CC[C@H](C)[C@@H]1NC(=O)[C@H](CCCN=C(N)N)NC(=O)[C@@H]2CCCN2C(=O)[C@H](CC(N)=O)NC(=O)[C@H](CC(=O)O)NC(=O)[C@@H](NC(=O)[C@H](CC(C)C)NC(=O)[C@H](C)NC(C)=O)CSSC[C@@H](C(=O)N[C@@H](CCC(N)=O)C(=O)N[C@@H](Cc2ccccc2)C(=O)N[C@H](C(=O)N[C@@H](CCC(=O)O)C(=O)NCC(N)=O)C(C)C)NC(=O)[C@H](Cc2ccc(O)cc2)NC(=O)[C@H](Cc2c[nH]c3ccccc23)NC(=O)[C@H](CCCN=C(N)N)NC(=O)[C@H](CC(=O)O)NC1=O (Ac-ALCDNPRIDRWYCQFVEG-NH2; disulfide 3-13),0.39
2,CC[C@H](C)[C@@H]1NC(=O)[C@H](CCCN=C(N)N)NC(=O)[C@@H]2CCCN2C(=O)[C@H](CC(N)=O)NC(=O)[C@H](CC(=O)O)NC(=O)[C@@H](NC(=O)[C@H](CC(C)C)NC(=O)[C@H](C)NC(=O)CCCCCOP(=O)(O)OCCCCCc2ccccc2)CSSC[C@@H](C(=O)N[C@@H](CCC(N)=O)C(=O)N[C@@H](Cc2ccccc2)C(=O)N[C@H](C(=O)N[C@@H](CCC(=O)O)C(=O)NCC(N)=O)C(C)C)NC(=O)[C@H](Cc2ccc(O)cc2)NC(=O)[C@H](Cc2c[nH]c3ccccc23)NC(=O)[C@H](CCCN=C(N)N)NC(=O)[C@H](CC(=O)O)NC1=O (X1-ALCDNPRIDRWYCQFVEG-NH2; disulfide 3-13),0.98
3,CC[C@H](C)[C@@H]1NC(=O)[C@H](CCCN=C(N)N)NC(=O)[C@@H]2CCCN2C(=O)[C@H](CC(N)=O)NC(=O)[C@H](CC(=O)O)NC(=O)[C@@H](NC(=O)[C@H](CC(C)C)NC(=O)[C@H](C)NC(=O)CCCCCOP(=O)(O)Oc2ccc3ccccc3c2)CSSC[C@@H](C(=O)N[C@@H](CCC(N)=O)C(=O)N[C@@H](Cc2ccccc2)C(=O)N[C@H](C(=O)N[C@@H](CCC(=O)O)C(=O)NCC(N)=O)C(C)C)NC(=O)[C@H](Cc2ccc(O)cc2)NC(=O)[C@H](Cc2c[nH]c3ccccc23)NC(=O)[C@H](CCCN=C(N)N)NC(=O)[C@H](CC(=O)O)NC1=O (X2-ALCDNPRIDRWYCQFVEG-NH2; disulfide 3-13),0.97
4,CC[C@H](C)[C@@H]1NC(=O)[C@H](CCCN=C(N)N)NC(=O)[C@@H]2CCCN2C(=O)[C@H](CC(N)=O)NC(=O)[C@H](CC(=O)O)NC(=O)[C@@H](NC(=O)[C@H](CC(C)C)NC(=O)[C@H](C)NC(=O)CCCCCOP(=O)(O)OC2CCC(c3ccccc3)(c3ccccc3)CC2)CSSC[C@@H](C(=O)N[C@@H](CCC(N)=O)C(=O)N[C@@H](Cc2ccccc2)C(=O)N[C@H](C(=O)N[C@@H](CCC(=O)O)C(=O)NCC(N)=O)C(C)C)NC(=O)[C@H](Cc2ccc(O)cc2)NC(=O)[C@H](Cc2c[nH]c3ccccc23)NC(=O)[C@H](CCCN=C(N)N)NC(=O)[C@H](CC(=O)O)NC1=O (X3-ALCDNPRIDRWYCQFVEG-NH2; disulfide 3-13),0.97
5,CC[C@H](C)[C@@H]1NC(=O)[C@H](CCCN=C(N)N)NC(=O)[C@@H]2CCCN2C(=O)[C@H](CC(N)=O)NC(=O)[C@H](CC(=O)O)NC(=O)[C@@H](NC(=O)[C@H](CC(C)C)NC(=O)[C@H](C)NC(=O)CCC(=O)NS(=O)(=O)c2ccc3ccccc3c2)CSSC[C@@H](C(=O)N[C@@H](CCC(N)=O)C(=O)N[C@@H](Cc2ccccc2)C(=O)N[C@H](C(=O)N[C@@H](CCC(=O)O)C(=O)NCC(N)=O)C(C)C)NC(=O)[C@H](Cc2ccc(O)cc2)NC(=O)[C@H](Cc2c[nH]c3ccccc23)NC(=O)[C@H](CCCN=C(N)N)NC(=O)[C@H](CC(=O)O)NC1=O (X4-ALCDNPRIDRWYCQFVEG-NH2; disulfide 3-13),0.98

# Source: ChEMBL document CHEMBL1136423, “Phosphate ester serum albumin affinity tags greatly improve peptide half-life in vivo” (Bioorg Med Chem Lett, 2003)
